Source: ChEMBL document CHEMBL1150078, “A Novel Class of Non-Peptidic Endothelin Antagonists Isolated from the Medicinal Herb Phyllanthus niruri” (J Nat Prod, 1995)
Active and inactive are the calls of the source. The calls are words filed in the database; no cut-off is given here.

Legend:
Assay type in all cases: cell-based
Endothelin-1 receptor [1] = target: T1, Endothelin-1 receptor (Homo sapiens, UniProt P25101); assay: Displacement of [125I]endothelin-1 from human recombinant ETA receptor expressed in CHO cells
T1 sequence (P25101 whole entry): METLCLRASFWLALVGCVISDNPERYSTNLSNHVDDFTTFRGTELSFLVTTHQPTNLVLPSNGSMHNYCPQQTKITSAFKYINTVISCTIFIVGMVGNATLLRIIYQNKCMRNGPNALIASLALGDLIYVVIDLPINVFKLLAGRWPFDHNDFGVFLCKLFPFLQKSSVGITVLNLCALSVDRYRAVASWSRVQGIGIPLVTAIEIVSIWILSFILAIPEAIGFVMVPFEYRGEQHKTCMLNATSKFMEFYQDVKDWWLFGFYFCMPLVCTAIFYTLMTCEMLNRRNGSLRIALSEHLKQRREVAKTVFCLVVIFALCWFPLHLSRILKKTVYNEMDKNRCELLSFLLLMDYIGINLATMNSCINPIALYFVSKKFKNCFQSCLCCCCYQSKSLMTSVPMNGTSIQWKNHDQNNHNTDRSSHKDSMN

Endothelin-1 receptor [2] = target: T2, Endothelin-1 receptor (Rattus norvegicus, UniProt P26684); assay: Displacement of [125I]endothelin-1 from ETA receptor in rat A10 cells by scintillation counting
T2 sequence (P26684 whole entry): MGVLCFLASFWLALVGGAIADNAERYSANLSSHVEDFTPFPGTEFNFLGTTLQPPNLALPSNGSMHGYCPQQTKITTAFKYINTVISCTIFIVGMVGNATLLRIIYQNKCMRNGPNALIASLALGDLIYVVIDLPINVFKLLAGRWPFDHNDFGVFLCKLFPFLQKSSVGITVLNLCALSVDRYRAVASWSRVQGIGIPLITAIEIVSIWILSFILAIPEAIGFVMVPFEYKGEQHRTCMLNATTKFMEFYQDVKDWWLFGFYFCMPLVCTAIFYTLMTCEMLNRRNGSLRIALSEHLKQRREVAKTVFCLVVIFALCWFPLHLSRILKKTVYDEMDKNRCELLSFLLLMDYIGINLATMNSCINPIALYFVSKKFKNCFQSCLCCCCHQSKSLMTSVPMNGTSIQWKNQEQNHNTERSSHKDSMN

[3] = target: T3, Endothelin receptor type B (Homo sapiens, UniProt P24530); assay: Displacement of [125I]endothelin-1 from human recombinant ETB receptor expressed in CHO cells
T3 sequence (P24530 whole entry): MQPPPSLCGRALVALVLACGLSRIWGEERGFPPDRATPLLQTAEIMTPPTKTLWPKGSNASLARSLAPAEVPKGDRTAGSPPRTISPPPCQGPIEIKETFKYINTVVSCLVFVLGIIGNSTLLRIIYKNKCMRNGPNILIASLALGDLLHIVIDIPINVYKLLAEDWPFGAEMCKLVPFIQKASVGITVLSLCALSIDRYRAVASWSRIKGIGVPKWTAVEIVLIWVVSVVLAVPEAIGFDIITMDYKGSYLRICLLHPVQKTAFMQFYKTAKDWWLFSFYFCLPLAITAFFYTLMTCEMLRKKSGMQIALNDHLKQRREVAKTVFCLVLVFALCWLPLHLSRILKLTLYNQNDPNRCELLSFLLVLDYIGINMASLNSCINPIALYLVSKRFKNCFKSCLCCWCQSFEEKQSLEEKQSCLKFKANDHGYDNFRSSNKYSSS

[4] = target: T4, Endothelin-1 receptor (Homo sapiens) (UniProt P25101); assay: Activity at human recombinant ETA receptor expressed in CHO cells assessed as inhibition of endothelin-1-induced increase in extracellular acidification rate at 100 uM by microphysiometry
T4 sequence (whole entry): T1 sequence (P25101 whole entry)

[5] = target: T4, Endothelin-1 receptor (Homo sapiens); assay: Activity at human recombinant ETA receptor expressed in CHO cells assessed as inhibition of endothelin-1-induced increase in extracellular acidification rate at 20 uM by microphysiometry
[6] = target: T5, Endothelin receptor type B (Homo sapiens) (UniProt P24530); assay: Activity at human recombinant ETB receptor expressed in CHO cells assessed as inhibition of endothelin-1-induced increase in extracellular acidification rate at 20 uM by microphysiometry
T5 sequence (whole entry): T3 sequence (P24530 whole entry)

[7] = target: T5, Endothelin receptor type B (Homo sapiens); assay: Activity at human recombinant ETB receptor expressed in CHO cells assessed as inhibition of endothelin-1-induced increase in extracellular acidification rate at 100 uM by microphysiometry

IC50 (Endothelin-1 receptor [1]) | IC50 (Endothelin-1 receptor [2]) | IC50 [3] | inhibition [4] | inhibition [5] | Activity [6] | Activity [7] | Structure (SMILES)
160 µM |  |  |  |  |  |  | COc1cc(C)c(OC)c2c1C[C@@H](C(=O)O)C[C@H]2c1ccccc1
40 µM | 580 µM | > 500 µM | 39% | 28% | inactive | inactive | COC[C@@H]1Cc2cc(OC)c3c(c2[C@H](c2ccc(OC)c(OC)c2)[C@H]1COC)OCO3 [HYPOPHYLLANTHIN]
75 µM | 400 µM | > 500 µM |  |  |  |  | COC[C@@H]1Cc2cc3c(c(OC)c2[C@H](c2ccc(OC)c(OC)c2)[C@H]1COC)OCO3 [NIRTETRALIN]

Structure (SMILES) | IC50 (Endothelin-1 receptor [1]) | IC50 (Endothelin-1 receptor [2]) | IC50 [3] | inhibition [4] | inhibition [5] | Activity [6] | Activity [7]
COC[C@H](Cc1ccc(OC)c(OC)c1)[C@H](COC)Cc1ccc(OC)c(OC)c1 [PHYLLANTHIN] | > 1000 µM | > 1000 µM | > 500 µM |  |  |  | 
